The numbers were not newly measured in patent publication US20080014152A1, “INTRANASAL DELIVERY OF C[…] THE […] AND INTO THE BRAIN” (priority 2006, published 2008), which cites them from elsewhere.

One data set concerns the target T1, β2 adrenergic receptors (Rattus norvegicus, UniProt P10608).
T1 construct: host or cells: rat cerebral cortex (in vivo)
To be noted: Colangelo 1998; stimulation of β2 adrenergic receptors.

The next data set has as its system NGF mRNA. To be noted: Follesa 1993; 10 mg/kg intraperitoneal, within 5 hours of administration.
Another data set deals with hippocampal cells. To be noted: Zhu 2001.
In a further data set the test system is U937 cell. To be noted: Izeboud 1999; U937 cells stimulated with LPS.
For the next data set, the system named is astrocytes. The following applies: Abdulla 2005; astrocytes treated with LPS.
For another data set, the system named is NGF protein. To be noted: Zhu 1998; intraperitoneal.
In another data set the test system is hippocampal cultures. To be noted: Semkova 1996; in vitro exposure of hippocampal cultures.
The conditions of data set [1]: McIntyre 2005; infusions into the amygdala.
The conditions of data set [2]: Sleeper 2002; chronic systemic administration.
For data set [3] the following is noted: Culmsee 1999.
For data set [4] the following is noted: Culmsee 2004.
For data set [5] the following is noted: Rami 2003; after transient global ischemia.

T1 sequence (P10608 whole entry): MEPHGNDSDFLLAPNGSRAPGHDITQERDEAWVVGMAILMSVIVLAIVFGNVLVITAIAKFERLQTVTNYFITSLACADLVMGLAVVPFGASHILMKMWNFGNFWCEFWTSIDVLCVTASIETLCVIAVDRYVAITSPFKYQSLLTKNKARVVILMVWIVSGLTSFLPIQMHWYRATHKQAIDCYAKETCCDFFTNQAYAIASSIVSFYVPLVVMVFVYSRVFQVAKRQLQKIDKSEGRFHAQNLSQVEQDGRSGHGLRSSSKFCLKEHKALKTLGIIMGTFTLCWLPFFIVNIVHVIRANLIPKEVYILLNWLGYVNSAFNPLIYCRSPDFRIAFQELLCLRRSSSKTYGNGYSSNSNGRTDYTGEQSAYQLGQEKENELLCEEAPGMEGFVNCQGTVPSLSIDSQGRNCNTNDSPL

Turning to `CC(C)(C)NCC(O)c1cc(Cl)c(N)c(Cl)c1` (stereo not drawn) [clenbuterol], at β2 adrenergic receptors, the “NGF biosynthesis in the rat cerebral cortex” value was “increases NGF biosynthesis”. Moreover, the “increase in NGF mRNA in the cerebral cortex” value in the data set with NGF mRNA is 2-3 fold. The TGF-β immunoreactivity entry in the data set on TGF-β (Zhu 2001, 0.5 mg/kg, as early as 3 hours after administration, elevated up to 2 days) is given as “increase TGF-β immunoreactivity”. Moreover, the “induction of TGF-β production in neurons” value in the data set with TGF-β (in vivo) was 2-3 ×. For the same compound, in the data set on hippocampal cells, the “neuroprotection of hippocampal cells after ischemia” value is given as “provided neuroprotection”. Moreover, the “increase in bFGF mRNA in the cerebral cortex, hippocampus and cerebellum” value in the data set on bFGF mRNA (Follesa 1993, 10 mg/kg intraperitoneal, within 5 hours of administration) was 2-3 fold. In addition, the “induction of bFGF production in neurons” value with bFGF mRNA (in vivo) is on record as 2-3 ×. In the data set on U937 cell, the IL-6 production entry is listed as “decreasing”, the IL-10 production entry is recorded as “increase IL-10 production” and the TNF-α production entry is reported as “decreasing”. The “protection from inflammation in astrocytes” value with astrocytes was “provides protection from inflammation”. For the same compound, the “elevation of NGF protein levels in the rat hippocampus” value with NGF protein is 33%. Also, in the data set on hippocampal cultures, the “NGF content in the culture medium” value is “enhanced significantly”. The memory entry in [1] is listed as “enhance memory”. Further, in data set [2], the “side effects, cardiac function” value is on record as “negative alteration of cardiac function”. For the same compound, the cortical infarct volume result in data set [3] (0.01-0.5 mg/kg, rats, measured 7 days after permanent occlusion of the middle cerebral artery) was “reduced cortical infarct volume”. Besides, in data set [3] (dosages greater than 1 mg/kg), the blood pressure result is “decrease in blood pressure”, the cerebroprotective effect result is reported as “no cerebroprotective effect” and the plasma glucose level result is “increase in plasma glucose level”. Besides, the “neuroprotective capacity in experimental models of stroke” value in data set [4] is “neuroprotective capacity”. Besides, in data set [5], the “apoptosis in the rat hippocampus” value is given as “attenuates apoptosis”.
